Experimental data: US20190256929A1, “PHARMACODYNAMIC BIOMARKERS FOR PERSONALIZED CANCER CARE USING EPIGENETIC MODIFYING AGENTS” (ORYZON GENOMICS, S.A., priority 2016, published 2019)

Key:
[1] = test system: PDX model FHSC04; test: RNA-seq PD gene change in SCLC PDX model FHSC04 treated in vivo; set-up: species or system mice; conditions: 400 μg/kg oral gavage
Experimental: To confirm the results obtained for small cell lung cancer cell line xenograft, changes in PD markers Notch1, ASCL1 and GRP were evaluated in PDX model FHSC04 treated in vivo with LSD1i (trans)-N1-((1R,2S)-2-phenylcyclopropyl)cyclohexane-1,4-diamine (FIG. 13). Eight to twelve-week-old NOD scid gamma mice were implanted with 1.0×10^6 disaggregated cells from PDX model FHSC04 in 100 μl of 1:1 HITES media:Matrigel. […] Once tumor volume reached 150-200 mm^3, mice were randomly assigned to treatment groups for 21-35 days, depending on the kinetics of growth in the given model. Animals were treated with saline or with 400 μg/kg ((trans)-N1-((1R,2S)-2-phenylcyclopropyl)cyclohexane-1,4-diamine, delivered by oral gavage once every 7 days, dissolved to 10 ml/kg with 0.9% saline solution. For the 10-day treatment in FHSC04 used for molecular analyses, an additional dose of 400 μg/kg (trans)-N1-((1R,2S)-2-phenylcyclopropyl)cyclohexane-1,4-diamine was given 4 hours before tissue collection.
For RNA-seq analyses using PDX samples in vivo, the Ultra RNA Library Prep Kit for Illumina (New England BioLabs; catalog E753L) was used to generate libraries from total RNA. All library preparation was conducted according to the manufacturer's instructions. Single-end sequencing (50 bp) was performed using an Illumina HiSeq 2500, reads of low quality were filtered prior to alignment to the hg19 genome build using TopHat v2.0.12 (Trapnell et al. Bioinformatics 2009 May 1; 25(9): 1105-1111). In vivo PDX samples were also aligned to mm9, where the mouse and human alignments from a given sample were compared, discarding from downstream analysis those reads which had fewer mismatches to mouse, relative to human. Cuffdiff v2.1.1 (Trapnell et al. Nat Biotechnol. 2013 January; 31(1):46-53) was used to generate fragment per kilobase per million (FPKM) expression values. Counts (CPM) were generated from TopHat alignments using the Python package HTSeq v0.6.1 (Anders et al. Bioinformatics. 2015 Jan. 15; 31(2): 166-169) using the “intersection-strict” overlap mode. […]

[2] = test system: panel of 14 cell lines (small cell lung cancer, non-small-cell lung cancer, acute myelogenic leukemia, acute lymphoblastic T-cell leukemia); test: RNA-seq differential gene expression of PD markers in a panel of 14 cell lines; format: cell-based, human; conditions: 5 nM, 6 days
Experimental: A panel of 14 cell lines was treated with (trans)-N1-((1R,2S)-2-phenylcyclopropyl)cyclohexane-1,4-diamine (5 nM) or control vehicle for 6 days. The panel included eight small cell lung cancer cell lines (COLO 668, DMS 53, NCI-H146, NCI-H187, NCI-H446, NCI-H510A, NCI-H1417, SHP-77), two non-small-cell lung cancer cell lines (CAL-12T, NCI-H441), two acute myelogenic leukemia cell lines (KASUMI, OCI-AML2), and two acute lymphoblastic T-cell leukemia cell lines (JURKAT, SUP-T1).
Each cell line-treatment pair contained two to four biological replicates.
Expression data were obtained from whole transcriptomic RNA sequencing (RNA-seq) by Illumina, Inc. (San Diego, Calif.). The Illumina HiSeq machine generates raw base calls in reads of 50 or 100 bp length, which are subjected to several data analysis steps. The RNA-seq is conducted at 40 to 50 million reads per sample. This number provides relatively high sensitivity to detect low-expressed genes while allowing for cost-effective multiplexing of samples. RNA is prepared by standard kits and RNA libraries by polyA TruSeq Illumina kits. 100 ng of mRNA per cell line is used for each RNA-seq reaction. A number of quality control procedures are applied to the RNA-seq data for each sample. The Illumina HiSeq software reports the total number of clusters (DNA fragments) loaded in each lane, percent passing sequencing quality filters (which identifies errors due to overloading and sequencing chemistry), a phred quality score for each base of each sequence read, overall average phred scores for each sequencing cycle, and overall percent error (based on alignment to the reference genome). For each RNA-seq sample, the percentage of reads that contain mitochondrial and ribosomal RNA was calculated. The FASTQC package was used to provide additional QC metrics (base distribution, sequence duplication, overrepresented sequences, and enriched kmers) and a graphical summary. Raw reads were aligned against the human genome (hg19) using GSNAP and recommended options for RNASeq data. In addition to the genome sequence, GSNAP is given a database of human splice junctions and transcripts based on Ensembl v73. Resulting SAM files are then converted to sorted BAM files using Samtools. Gene expression values are calculated both as RPKM values following (Mortazavi A. et al. (2008) Nature Methods 5:621-628) and as read counts.
Differential gene expression analysis was performed using the DESeq2 package (Love M. I. et al. (2014) Genome Biology 15:550). Read counts from RNA-seq data were analyzed via a multi-factor generalized linear model of the negative binomial family, considering both treatment and the cell line type as factors that explain the changes in gene expression values.
The following filtering process was applied to identify genes that can serve as PD markers in surrogate tissues (skin or blood): • 1. […] The minimal expression level of the gene in normal blood and skin tissues was greater than one read per kilobase per million reads (RPKM, Mortazavi et al.), as obtained from the Genotype-Tissue Experssion (GTEx) project (The GTEx Consortium (2015) Science 348(6235):648-660). • 4. The minimal expression level of the gene in PBMC tissues was greater than 20 fragments per kilobase per million (FPKM; Trapnell C. et al. (2010) Nature Biotechnology 28:511-515) as obtained from the Ohmomo et al. study (Ohmomo H. et al. (2014) PLOS ONE 9(8):1-11). • 5. The gene is a target of LSD1, as determined by chromatin immunoprecipitation (ChIP) assay from the Adamo et al. study, or interacts with the LSD1 gene, as annotated by the BioGRID database (thebiogrid.org).
Additionally, we analyzed differential gene expression for a set of 35 genes which were previously identified as predictive biomarkers of response to LSD1 treatment.
Differentially expressed pathway analysis was done by the MetaBase R Library (Thompson Reuters).

[3] = RNA-seq, median across all cell lines, vs vehicle

In the case of N[C@H]1CC[C@H](N[C@@H]2C[C@H]2c2ccccc2)CC1 [RG6016, (trans)-N1-((1R,2S)-2-phenylcyclopropyl)cyclohexane-1,4-diamine], the “ASCL1 transcript regulation (FIG. 13)” value [1] is reported as “down regulation”, the “GRP transcript regulation (FIG. 13)” value [1] is reported as “down regulation” and the “NOTCH1 transcript regulation (FIG. 13)” value [1] is reported as “up regulation”. For the same compound, the “ASCL1 differential gene expression after treatment (in words)” value ([2]; RNA-seq) was “very significantly down-regulated”, the “GRP differential gene expression after treatment (in words)” value ([2]; RNA-seq) was “very significantly down-regulated” and the “CNN2 Median Log2 FC” value [2, 3] was 0.35. For the same compound, the “DENND5A Median Log2 FC” value [2, 3] was 0.32, the “NOTCH1 Median Log2 FC” value [2, 3] was 0.49 and the “VIM Median Log2 FC” value [2, 3] was 0.46. The “ZFP36L1 Median Log2 FC” value [2, 3] was 0.27, the “ASCL1 Median Log2 FC” value ([2]; RNA-seq, vs vehicle) was −0.16 and the “GRP Median Log2 FC” value ([2]; RNA-seq, vs vehicle) was −0.26. For the same compound, the “development NOTCH signaling pathway, differentially expressed pathway analysis” value ([2]; MetaBase R Library, RNA-seq data) was “one of the most significantly differentially expressed pathway”.
